Molecules are shown by their SMILES.

Data set [1] is described as follows: Stability in mouse liver microsomes assessed as intrinsic clearance measured per mg protein.
Data set [2] addresses T1, Bromodomain-containing protein 4 (Homo sapiens, UniProt O60885). Kind of data set: Displacement of Biotin-tagged [Lys(5,8,12,16)Ac]H4(1 to 21) peptide from GST-tagged BRD4-BD1 (unknown origin) incubated for 3 hrs by HTRF based TR-FRET assay.
Data set [3] is described as follows: Stability in human liver microsomes assessed as intrinsic clearance measured per mg protein.
The nature of data set [4]: Half life in Slc:ICR mouse at 0.5 mg/kg, iv measured for 4 to 8 hrs by LC/MS/MS analysis. It counts as ADME, organism-based. The settings on record: in vivo, time 4-8 hrs.
Data set [5] has as its target T1, Bromodomain-containing protein 4. Kind of data set: Inhibition of NanoLuc-tagged full length BRD4 (unknown origin) transfected in HEK293 cells coexpressing histone H4-halo-tagged fusion vector preincubated overnight followed by substrate addition and measured after 10 mins by NanoBRET assay. It counts as cell-based.
Data set [6] shares this target. Kind of data set: Displacement of Biotin-tagged [Lys(5,8,12,16)Ac]H4(1 to 21) peptide from BRD4-BD2 (unknown origin) incubated for 3 hrs by HTRF based TR-FRET assay.
The nature of data set [7]: Antitumor activity against human A375.S2 cells xenografted CAnN.Cg-Foxnlnu/CrlCrlj mouse model assessed as reduction in tumor growth at 60 mg/kg administered twice daily for 14 days relative to control. On the set-up: scale not given: the % may be the effect or the level left. The data set is classed as functional. The settings on record: time 14 day.
The nature of data set [8]: Total clearance in Slc:ICR mouse at 0.5 mg/kg, iv measured for 4 to 8 hrs by LC/MS/MS analysis. The data set is classed as ADME, organism-based. To be noted: in vivo, time 4-8 hrs.
A short description of data set [9]: Apparent permeability of the compound across apical side to basolateral side in human Caco-2 cells incubated for 2 hrs by LC-MS/MS analysis.
Data set [10] addresses Bromodomain testis-specific protein (Homo sapiens, UniProt Q58F21). Description: Displacement of Biotin-tagged [Lys(5,8,12,16)Ac]H4(1 to 21) peptide from GST-tagged BRDT-BD1 (unknown origin) incubated for 3 hrs by HTRF based TR-FRET assay.
A short description of data set [11]: Volume of distribution in Slc:ICR mouse at 0.5 mg/kg, iv measured for 4 to 8 hrs by LC/MS/MS analysis. It counts as ADME, organism-based. The settings on record: in vivo, time 4-8 hrs.
Data set [12] is described as follows: Oral bioavailability in Slc:ICR mouse at 1 mg/kg measured for 8 to 24 hrs by LC/MS/MS analysis. It counts as ADME, organism-based. To be noted: in vivo, time 8-24 hrs.
A short description of data set [13]: AUC (0 to 24 hrs) in Slc:ICR mouse at 1 mg/kg, po measured for 8 to 24 hrs by LC/MS/MS analysis. On the set-up: dose 1 mg/kg, time upper 24 hrs, time lower 8 hrs, route po. The data set is classed as ADME, organism-based. To be noted: in vivo.
A short description of data set [14]: Antiproliferative activity against human A375.S2 cells assessed as inhibition of cell growth incubated for 72 hrs by WST-1 assay. It counts as functional, cell-based. The settings on record: A375-S2, 72 h.
A short description of data set [15]: in vivo. The settings on record: Slc:ICR, mouse, po, 1 mg/kg.
The target in data set [16] is Bromodomain-containing protein 3 (Homo sapiens, UniProt Q15059). Kind of data set: Displacement of Biotin-tagged [Lys(5,8,12,16)Ac]H4(1 to 21) peptide from GST-tagged BRD3-BD1 (unknown origin) incubated for 3 hrs by HTRF based TR-FRET assay.
The target of data set [17] is Bromodomain-containing protein 2 (Homo sapiens, UniProt P25440). Description: Displacement of Biotin-tagged [Lys(5,8,12,16)Ac]H4(1 to 21) peptide from GST-tagged BRD2-BD1 (unknown origin) incubated for 3 hrs by HTRF based TR-FRET assay.
Data set [18] in a line: Toxicity in CAnN.Cg-Foxnlnu/CrlCrlj mouse xenografted with human A375.S2 cells assessed as body weight loss at 30 to 60 mg/kg administered twice daily for 14 days. The data set is classed as organism-based. To be noted: in vivo, 336 h, dose 30-60 mg/kg, time 14 day.
A short description of data set [19]: AUC (0 to 8 hrs) in Slc:ICR mouse at 1 mg/kg, po measured for 8 to 24 hrs by LC/MS/MS analysis. It counts as ADME, organism-based. On the set-up: time lower 8 hrs, dose 1 mg/kg, time upper 24 hrs, route po. The settings on record: in vivo.

Sequence of Bromodomain-containing protein 3 (Q15059 whole entry): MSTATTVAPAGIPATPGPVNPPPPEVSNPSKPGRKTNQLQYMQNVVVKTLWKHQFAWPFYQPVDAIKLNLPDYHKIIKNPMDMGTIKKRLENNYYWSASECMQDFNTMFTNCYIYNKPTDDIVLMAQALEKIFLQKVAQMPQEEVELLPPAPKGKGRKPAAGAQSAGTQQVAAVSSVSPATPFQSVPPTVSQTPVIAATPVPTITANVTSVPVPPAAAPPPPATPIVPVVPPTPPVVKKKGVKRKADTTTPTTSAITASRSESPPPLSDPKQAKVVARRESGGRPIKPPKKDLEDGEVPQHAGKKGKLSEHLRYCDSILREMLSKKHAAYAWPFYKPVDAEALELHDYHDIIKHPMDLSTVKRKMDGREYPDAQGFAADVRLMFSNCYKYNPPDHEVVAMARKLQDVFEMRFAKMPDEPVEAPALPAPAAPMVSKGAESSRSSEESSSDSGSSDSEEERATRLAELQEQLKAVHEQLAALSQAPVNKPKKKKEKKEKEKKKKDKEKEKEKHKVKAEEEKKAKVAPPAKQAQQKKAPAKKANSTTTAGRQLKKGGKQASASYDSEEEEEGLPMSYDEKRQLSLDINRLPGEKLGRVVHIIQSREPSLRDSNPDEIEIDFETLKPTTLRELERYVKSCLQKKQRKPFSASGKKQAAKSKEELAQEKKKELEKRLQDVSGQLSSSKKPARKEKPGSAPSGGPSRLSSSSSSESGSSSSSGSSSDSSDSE
Sequence of Bromodomain-containing protein 2 (P25440 whole entry): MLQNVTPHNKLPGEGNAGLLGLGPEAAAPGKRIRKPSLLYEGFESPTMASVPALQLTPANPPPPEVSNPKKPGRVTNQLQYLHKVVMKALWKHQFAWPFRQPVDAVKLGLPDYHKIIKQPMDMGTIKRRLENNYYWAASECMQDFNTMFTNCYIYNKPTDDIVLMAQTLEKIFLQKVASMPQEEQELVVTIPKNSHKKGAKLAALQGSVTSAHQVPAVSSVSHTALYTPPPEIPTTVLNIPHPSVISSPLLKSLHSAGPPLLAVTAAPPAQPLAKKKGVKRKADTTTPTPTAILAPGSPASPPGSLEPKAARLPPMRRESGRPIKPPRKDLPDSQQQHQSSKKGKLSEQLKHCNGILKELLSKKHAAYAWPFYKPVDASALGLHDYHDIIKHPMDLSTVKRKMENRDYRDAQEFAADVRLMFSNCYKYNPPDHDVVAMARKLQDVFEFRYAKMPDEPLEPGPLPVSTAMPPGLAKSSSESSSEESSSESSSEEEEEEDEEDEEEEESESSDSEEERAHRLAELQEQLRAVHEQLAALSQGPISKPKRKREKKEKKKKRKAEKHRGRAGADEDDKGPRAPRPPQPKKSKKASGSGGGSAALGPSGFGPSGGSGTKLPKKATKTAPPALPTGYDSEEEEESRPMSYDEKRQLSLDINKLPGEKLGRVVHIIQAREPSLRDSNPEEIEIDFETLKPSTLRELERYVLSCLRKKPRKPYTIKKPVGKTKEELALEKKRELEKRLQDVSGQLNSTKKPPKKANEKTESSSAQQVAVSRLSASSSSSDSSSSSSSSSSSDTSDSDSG

`CCS(=O)(=O)Cc1cc(-c2cc(C)c(=O)n(C)c2)cc2c1n(C)c(=O)n2Cc1ccccc1`: the CLH is 34 mL/min in [1] and 14 mL/min in [3]. The IC50 in [2] is 4.8 nM.

As for `Cc1cc(-c2cc3c4c(c2)n(Cc2ccccc2)c(=O)n4CCO3)cn(C)c1=O`, the half-life in data set [4] was 4.1 h. The IC50 in [5] turned out to be 81 nM; in [6] it was 55 nM; in [10], 68 nM; in [14], 539 nM; in [2], 15 nM; in [16], 25 nM. Further, the 50% inhibitory concentration (IC50) in data set [17] was 19 nM. The Activity in data set [7] was 41%; in [18], “Non-Toxic”. In data set [8], this compound displayed a clearance of 3.3 mL/min. The Papp A→B at 2 h in [9] was determined as 12 ×10⁻⁶ cm/s. The volume of distribution (Vd) in [11] was 1.18 L/kg. In [12], this compound showed a bioavailability of 49%. The CLH in data set [1] was found to be 17 mL/min. In [13], this compound showed an area under the curve AUC(0-t) of 2420 ng·h/mL. The same compound gave a Cmax in [15] of 299 ng/mL.

Turning to `CCS(=O)(=O)NCc1cc(-c2cc(C)c(=O)n(C)c2)cc2c1n(C)c(=O)n2Cc1ccccc1`, the Papp A→B at 2 h in data set [9] turned out to be 0.03 ×10⁻⁶ cm/s. The results for the CLH in [1] and in data set [3] were 53 mL/min and 37 mL/min, respectively. In data set [2], this compound showed an IC50 of 39 nM.

On to `CCS(=O)(=O)NCc1cc(-c2cc(C)c(=O)n(C)c2)cc2c1[nH]c(=O)n2Cc1ccccc1`, for which the apparent permeability from apical to basolateral (Papp A→B) at 2 h in [9] was determined as 0.11 ×10⁻⁶ cm/s. For the same compound, the figures for the CLH in data set [1] and in data set [3] were 66 mL/min and 43 mL/min, respectively. In addition, the IC50 in data set [2] came out at 12 nM.

In [2], `Cc1cc(-c2ccc3ccn(Cc4ccccc4)c3c2)cn(C)c1=O` had a half-inhibitory concentration (IC50) of 94 nM.

`CC[S+]([O-])c1cc(-c2cc(C)c(=O)n(C)c2)cc2c1[nH]c(=O)n2Cc1ccccc1` (centres undefined) gave an IC50 in data set [2] of 157 nM.

Compound `Cc1cc(-c2ccc3c(c2)N(Cc2ccccc2)C(=O)CN3)cn(C)c1=O` returned a 50% inhibitory concentration (IC50) in data set [2] of 122 nM.

For `Cc1cc(-c2ccc3nnn(Cc4ccccc4)c3c2)cn(C)c1=O`, the CLH in data set [1] was found to be 23 mL/min; in data set [3] it was 49 mL/min. In data set [2], this compound came in with a half-maximal inhibitory concentration (IC50) of 38 nM.

For `CCS(=O)(=O)c1cc(-c2cc(C)c(=O)n(C)c2)cc2c1[nH]c(=O)n2Cc1ccccc1`, in [2], the half-maximal inhibitory concentration (IC50) was determined as 112 nM.

Take `CCS(=O)(=O)Nc1cc(-c2cc(C)c(=O)n(C)c2)cc2c1[nH]c(=O)n2Cc1ccccc1`: in [9], the apparent permeability from apical to basolateral (Papp A→B) at 2 h was determined as 0.05 ×10⁻⁶ cm/s. Further, the CLH in data set [1] and in data set [3] was < 9.6 mL/min in each case. Further, in data set [2], the IC50 came to 19 nM.

For `Cc1cc(-c2ccc3cnn(Cc4ccccc4)c3c2)cn(C)c1=O`, the CLH in [1] was 42 mL/min; in data set [3] it was 43 mL/min. In [2], this compound registered a concentration for half-maximal inhibition (IC50) of 61 nM.

With `Cc1cc(-c2ccc3ncn(Cc4ccccc4)c3c2)cn(C)c1=O`, the CLH was determined as 36 mL/min in data set [1] and 65 mL/min in [3]. For the same compound, in data set [15], the Cmax was < 1 ng/mL.

`COCCn1c(=O)n(Cc2ccccc2)c2cc(-c3cc(C)c(=O)n(C)c3)ccc21` had an IC50 in data set [2] of 45 nM.

Regarding `CCS(=O)(=O)Cc1cc(-c2cc(C)c(=O)n(C)c2)cc2c1[nH]c(=O)n2Cc1ccccc1`, in data set [9], the Papp A→B at 2 h came to 0.02 ×10⁻⁶ cm/s. Besides, the CLH in data set [1] and in data set [3] was 11 mL/min throughout. For the same compound, the IC50 in data set [2] worked out at 4.2 nM.

Regarding `Cc1cc(-c2ccc3c(c2)n(Cc2ccccc2)c(=O)n3CC(C)C)cn(C)c1=O`, the CLH is 491 mL/min in data set [1] and 352 mL/min in [3]. The compound also came in with a 50% inhibitory concentration (IC50) in data set [2] of 42 nM.

Compound `Cc1cc(-c2ccc3[nH]c(=O)n(Cc4ccccc4)c3c2)cn(C)c1=O` gave a clearance in data set [8] of 40 mL/min. The Papp A→B at 2 h in data set [9] came out at 5.9 ×10⁻⁶ cm/s. Moreover, in data set [12], the bioavailability came to 70%. Further, the CLH in data set [1] was found to be 15 mL/min; in [3], 29 mL/min. In data set [19], the AUC(0-t) came out at 178 ng·h/mL. In addition, the 50% inhibitory concentration (IC50) in [2] amounted to 32 nM. Moreover, the concentration in [15] peaked (Cmax) at 37 ng/mL.

Regarding `Cc1cc(-c2ccc3c(c2)n(Cc2ccccc2)c(=O)n3C(C)C)cn(C)c1=O`, the Papp A→B at 2 h in data set [9] was 14 ×10⁻⁶ cm/s. Moreover, the figures for the CLH in data set [1] and in data set [3] were 38 mL/min and 27 mL/min, respectively. In [2], this compound gave an IC50 of 25 nM.

Regarding `Cc1cc(-c2ccc3c(c2)n(Cc2ccccc2)c(=O)n3C)cn(C)c1=O`, in [9], the apparent permeability from apical to basolateral (Papp A→B) at 2 h was 21 ×10⁻⁶ cm/s. The CLH in data set [1] worked out at 20 mL/min; in data set [3] it was 25 mL/min. The compound further displayed an IC50 in [2] of 50 nM.

The values above are taken from ChEMBL document CHEMBL5370578, “Discovery of a potent, orally available tricyclic derivative as a novel BRD4 inhibitor for melanoma” (Bioorg Med Chem, 2023).
